Measured values from patent US20040142920A1, “Bipiperidinyl-derivatives and their use as chemokine receptors inhibitors” (priority 2001, published 2004).
One block for each molecule: values may come before it.

Key:
Human CCR5 [1] = molecular target: T1, Human CCR5 (Homo sapiens, UniProt P51681); assay: CCR5 functional assay - Ca2+ mobilization in CHO K1 transfectants; format: cell-based; design: expressed in transfected cells
Procedure: b) CCR5 Functional Assay—Ca^2+ Mobilization
These CCR5 transfectants are used for assessing Ca^2+ mobilization in response to stimulation by the CCR5 ligands MIP-1α, MIP-1β, HCC-1(9-74) or RANTES. For the assay the cells are loaded with a Ca^2+-sensitive fluorochrome (Fluo3 or Fluo4). Ligand concentrations between 0.01-100 nM are used to induce Ca^2+ mobilization which is monitored in a fluorometer with appropriate settings.
To assess the activity of the compounds to be tested, a baseline fluorescence reading is taken after which the compounds at the desired concentration are added to the cells and fluorescence is further recorded for a certain time to assess whether compounds show agonistic effects. Next the agonist is added to the mixture and fluorescence monitored. The inhibition of Ca^2+ flux in the presence of the compounds to be tested is calculated from the inhibition of maximal fluorescence induced by the agonist. IC50 values are calculated from dose-response curves obtained with the compounds. […] For example, compounds of Example 1, 18 and 52 have an IC50 of 10, 9 and 4, respectively.

Human CCR5 [2] = molecular target: T1, Human CCR5; assay: CCR5 membrane binding assay (125-I MIP-1α radioligand)
Procedure: a) CCR5 Membrane Binding Assay
Human CCR5 is used to generate stable transfectants in CHO K1 cells. Membranes prepared from these CCR5 transfectants are used In a radioligand binding assay using 125-I MIP-1α as a ligand and the compounds of formula I are tested for inhibitory activity. The data are reported as IC50, i.e. the concentration of compound required to achieve 50% inhibition of [I-125]MIP-1α binding.

T1 sequence (P51681 whole entry): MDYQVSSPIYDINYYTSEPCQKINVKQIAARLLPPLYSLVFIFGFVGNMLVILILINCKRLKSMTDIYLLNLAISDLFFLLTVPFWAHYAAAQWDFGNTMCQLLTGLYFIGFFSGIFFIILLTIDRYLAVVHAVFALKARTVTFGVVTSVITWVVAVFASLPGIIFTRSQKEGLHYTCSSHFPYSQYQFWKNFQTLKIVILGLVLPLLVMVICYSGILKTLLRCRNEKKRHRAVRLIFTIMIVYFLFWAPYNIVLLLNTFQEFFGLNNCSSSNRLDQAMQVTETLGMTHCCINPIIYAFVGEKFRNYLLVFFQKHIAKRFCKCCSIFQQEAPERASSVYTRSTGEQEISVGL

SMILES: Cc1cccc(C)c1C(=O)N1CCC(C)(N2CCC(N(Cc3ccccc3)c3ccc(Br)cc3)CC2)CC1 [Example 52, {4-[Benzyl-(4-bromo-phenyl)amino]-4′-methyl-[1,4′]bipiperidinyl-1′-yl}-(2,6-dimethyl-phenyl)-methanone]
IC50 (Human CCR5 [1]): 4 nM

SMILES: Cc1nc(CN(c2ccccc2)C2CCN(C3(C)CCN(C(=O)c4c(C)cc[n+]([O-])c4C)CC3)CC2)cs1 [Example 83, (2,4-Dimethyl-1-oxy-pyridin-3-yl)-{4′-methyl-4-[(2-methyl-thiazol-4-ylmethyl)-phenyl-amino]-[1,4′]bipiperidinyl-1′-yl}-methanone]
IC50 (Human CCR5 [2]): 2 to 3 nM

IC50 (Human CCR5 [1]; CCR5-transfected CHO K1 cells, agonist MIP-1α, MIP-1β, HCC-1(9-74) or RANTES, Fluo3 or Fluo4, read-out: IC50, inhibition of Ca2+ flux): 9 nM
SMILES: CC1(N2CCC(N(c3ccccc3)c3ccccc3)CC2)CCN(C(=O)c2c(Cl)c[n+]([O-])cc2Cl)CC1 [Example 18]
